Source: paper PMC9719519, “Non-classical ferroptosis inhibition by a small molecule targeting PHB2” (Nature Communications, 2022)

How the values were obtained:
Experiment in all cases: biochemical
Set-up in all cases: Eurofins recombinant human kinase profiling, remaining kinase activity as % of control, 10 uM ATP
Details in all cases: ATP 10 uM; read-out: %Ctrl@10 μM
Pyk2(h) = molecular target: T1, Pyk2(h) (Homo sapiens, UniProt Q14289)
T1 construct: gene PTK2B
How it was run: (§1)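 Recombinant human kinases, 401 in total, screened using an outsourced kinase profiling assay.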

TrkA(h) = molecular target: T2, TrkA(h) (Homo sapiens, UniProt P04629)
T2 construct: gene NTRK1
How it was run: as §1

Mnk2(h) = molecular target: T3, Mnk2(h) (Homo sapiens, UniProt Q9HBH9)
T3 construct: gene MKNK2
How it was run: as §1

Aurora-B(h) = molecular target: T4, Aurora-B(h) (Homo sapiens, UniProt Q96GD4)
T4 construct: gene AURKB
How it was run: as §1

MARK3(h) = MARK3(h) (Homo sapiens, UniProt P27448)
How it was run: as §1

MAP4K5(h) = MAP4K5(h) (Homo sapiens, UniProt Q9Y4K4)
How it was run: as §1

PTK5(h) = molecular target: T5, PTK5(h) (Homo sapiens, UniProt P42685)
T5 construct: gene FRK
How it was run: as §1

NLK(h) = NLK(h) (Homo sapiens, UniProt Q9UBE8)
How it was run: as §1

DAPK2(h) = DAPK2(h) (Homo sapiens, UniProt Q9UIK4)
How it was run: as §1

STK32A(h) = STK32A(h) (Homo sapiens, UniProt Q8WU08)
How it was run: as §1

Cdc7/cyclinB1(h) = Cdc7/cyclinB1(h) (Homo sapiens, UniProt O00311)
How it was run: as §1

Rsk2(h) = molecular target: T6, Rsk2(h) (Homo sapiens, UniProt P51812)
T6 construct: gene RPS6KA3
How it was run: as §1

ALK1(h) = molecular target: T7, ALK1(h) (Homo sapiens, UniProt P37023)
T7 construct: gene ACVRL1
How it was run: as §1

HPK1(h) = molecular target: T8, HPK1(h) (Homo sapiens, UniProt Q92918)
T8 construct: gene MAP4K1
How it was run: as §1

CaMKIγ(h) = molecular target: T9, CaMKIγ(h) (Homo sapiens, UniProt Q96NX5)
T9 construct: gene CAMK1G
How it was run: as §1

TLK2(h) = TLK2(h) (Homo sapiens, UniProt Q86UE8)
How it was run: as §1

CK1δ(h) = molecular target: T10, CK1δ(h) (Homo sapiens, UniProt P48730)
T10 construct: gene CSNK1D
How it was run: as §1

Wee1(h) = Wee1(h) (Homo sapiens, UniProt P30291)
How it was run: as §1

p70S6K(h) = molecular target: T11, p70S6K(h) (Homo sapiens, UniProt P23443)
T11 construct: gene RPS6KB1
How it was run: as §1

FGFR1(h) = FGFR1(h) (Homo sapiens, UniProt P11362)
How it was run: as §1

CHK2(h) = molecular target: T12, CHK2(h) (Homo sapiens, UniProt O96017)
T12 construct: gene CHEK2
How it was run: as §1

WNK2(h) = WNK2(h) (Homo sapiens, UniProt Q9Y3S1)
How it was run: as §1

CDK2/cyclinE(h) = CDK2/cyclinE(h) (Homo sapiens, UniProt P24941)
How it was run: as §1

Sequence of Cdc7/cyclinB1(h) (O00311 whole entry): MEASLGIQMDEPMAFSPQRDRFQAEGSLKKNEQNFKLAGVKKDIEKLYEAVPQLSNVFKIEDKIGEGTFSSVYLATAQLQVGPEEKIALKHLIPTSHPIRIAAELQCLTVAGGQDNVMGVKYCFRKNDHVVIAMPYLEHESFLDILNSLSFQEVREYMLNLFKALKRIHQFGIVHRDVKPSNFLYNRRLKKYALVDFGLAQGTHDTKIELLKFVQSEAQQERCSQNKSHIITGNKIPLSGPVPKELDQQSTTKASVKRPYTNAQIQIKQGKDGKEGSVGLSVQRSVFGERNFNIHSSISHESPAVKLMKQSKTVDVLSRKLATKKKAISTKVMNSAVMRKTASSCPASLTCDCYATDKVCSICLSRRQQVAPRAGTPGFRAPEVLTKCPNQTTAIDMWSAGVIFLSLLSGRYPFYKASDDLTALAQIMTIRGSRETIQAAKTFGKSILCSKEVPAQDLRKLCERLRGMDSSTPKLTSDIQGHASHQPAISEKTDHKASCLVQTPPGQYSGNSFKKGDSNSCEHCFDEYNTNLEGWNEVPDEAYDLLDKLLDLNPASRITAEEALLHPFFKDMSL
Sequence of Cdc7/cyclinB1(h) (P14635 whole entry partner): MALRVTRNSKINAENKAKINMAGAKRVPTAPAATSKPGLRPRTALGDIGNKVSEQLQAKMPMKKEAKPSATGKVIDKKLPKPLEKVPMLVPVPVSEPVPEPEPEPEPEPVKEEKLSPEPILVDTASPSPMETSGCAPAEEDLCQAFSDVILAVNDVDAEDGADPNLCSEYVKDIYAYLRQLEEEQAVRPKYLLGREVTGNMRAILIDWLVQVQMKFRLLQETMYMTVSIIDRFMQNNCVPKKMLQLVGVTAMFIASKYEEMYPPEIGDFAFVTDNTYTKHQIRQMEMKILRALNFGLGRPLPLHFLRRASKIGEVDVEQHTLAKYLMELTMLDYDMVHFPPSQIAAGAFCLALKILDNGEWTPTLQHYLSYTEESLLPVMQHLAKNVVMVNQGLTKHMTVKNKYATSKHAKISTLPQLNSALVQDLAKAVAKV
T4 sequence (Q96GD4 whole entry): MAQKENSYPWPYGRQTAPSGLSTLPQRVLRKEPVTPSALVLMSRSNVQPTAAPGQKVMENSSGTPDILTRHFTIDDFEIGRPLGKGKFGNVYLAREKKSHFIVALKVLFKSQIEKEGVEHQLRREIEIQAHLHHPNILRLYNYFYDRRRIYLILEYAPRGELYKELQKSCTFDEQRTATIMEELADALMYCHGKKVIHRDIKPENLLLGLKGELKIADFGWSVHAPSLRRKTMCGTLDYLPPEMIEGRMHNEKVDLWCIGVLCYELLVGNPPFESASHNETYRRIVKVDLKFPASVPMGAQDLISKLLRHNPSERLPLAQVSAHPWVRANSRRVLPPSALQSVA
T5 sequence (P42685 whole entry): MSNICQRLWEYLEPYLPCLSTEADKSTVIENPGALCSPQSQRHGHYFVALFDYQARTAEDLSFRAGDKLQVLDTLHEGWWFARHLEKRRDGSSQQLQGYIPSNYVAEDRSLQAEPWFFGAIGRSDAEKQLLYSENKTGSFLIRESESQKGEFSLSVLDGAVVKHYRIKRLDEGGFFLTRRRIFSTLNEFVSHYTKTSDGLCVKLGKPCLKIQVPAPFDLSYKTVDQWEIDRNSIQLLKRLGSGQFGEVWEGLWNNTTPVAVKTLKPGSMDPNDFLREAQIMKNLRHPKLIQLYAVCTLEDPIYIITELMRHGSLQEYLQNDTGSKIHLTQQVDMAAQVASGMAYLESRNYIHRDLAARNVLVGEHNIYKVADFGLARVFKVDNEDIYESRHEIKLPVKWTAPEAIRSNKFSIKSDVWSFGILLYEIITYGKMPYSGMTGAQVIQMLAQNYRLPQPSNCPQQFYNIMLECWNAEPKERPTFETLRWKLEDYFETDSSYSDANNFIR
T8 sequence (Q92918 whole entry): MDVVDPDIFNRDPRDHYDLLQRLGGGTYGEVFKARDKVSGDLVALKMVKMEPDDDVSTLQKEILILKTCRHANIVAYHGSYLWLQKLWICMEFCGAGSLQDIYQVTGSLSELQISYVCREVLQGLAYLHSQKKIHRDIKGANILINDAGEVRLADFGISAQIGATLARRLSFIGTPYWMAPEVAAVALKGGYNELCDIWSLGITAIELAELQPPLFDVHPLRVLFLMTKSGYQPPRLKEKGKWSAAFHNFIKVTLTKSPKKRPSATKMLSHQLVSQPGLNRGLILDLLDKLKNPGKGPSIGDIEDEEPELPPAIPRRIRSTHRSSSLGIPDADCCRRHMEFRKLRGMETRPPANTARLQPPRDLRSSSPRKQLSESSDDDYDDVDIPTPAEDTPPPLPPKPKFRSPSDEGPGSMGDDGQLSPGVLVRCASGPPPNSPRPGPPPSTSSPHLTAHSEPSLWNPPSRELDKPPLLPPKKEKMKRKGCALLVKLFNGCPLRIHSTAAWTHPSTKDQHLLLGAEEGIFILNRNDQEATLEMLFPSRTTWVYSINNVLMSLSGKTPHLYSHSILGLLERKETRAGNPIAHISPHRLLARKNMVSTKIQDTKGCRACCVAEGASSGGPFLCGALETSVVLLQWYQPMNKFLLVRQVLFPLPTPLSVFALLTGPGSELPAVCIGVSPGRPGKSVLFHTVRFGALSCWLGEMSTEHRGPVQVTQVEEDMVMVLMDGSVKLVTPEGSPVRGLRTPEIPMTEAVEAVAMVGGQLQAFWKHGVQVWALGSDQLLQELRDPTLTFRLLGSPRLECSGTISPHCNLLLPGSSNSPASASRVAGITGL
Sequence of MARK3(h) (P27448 whole entry): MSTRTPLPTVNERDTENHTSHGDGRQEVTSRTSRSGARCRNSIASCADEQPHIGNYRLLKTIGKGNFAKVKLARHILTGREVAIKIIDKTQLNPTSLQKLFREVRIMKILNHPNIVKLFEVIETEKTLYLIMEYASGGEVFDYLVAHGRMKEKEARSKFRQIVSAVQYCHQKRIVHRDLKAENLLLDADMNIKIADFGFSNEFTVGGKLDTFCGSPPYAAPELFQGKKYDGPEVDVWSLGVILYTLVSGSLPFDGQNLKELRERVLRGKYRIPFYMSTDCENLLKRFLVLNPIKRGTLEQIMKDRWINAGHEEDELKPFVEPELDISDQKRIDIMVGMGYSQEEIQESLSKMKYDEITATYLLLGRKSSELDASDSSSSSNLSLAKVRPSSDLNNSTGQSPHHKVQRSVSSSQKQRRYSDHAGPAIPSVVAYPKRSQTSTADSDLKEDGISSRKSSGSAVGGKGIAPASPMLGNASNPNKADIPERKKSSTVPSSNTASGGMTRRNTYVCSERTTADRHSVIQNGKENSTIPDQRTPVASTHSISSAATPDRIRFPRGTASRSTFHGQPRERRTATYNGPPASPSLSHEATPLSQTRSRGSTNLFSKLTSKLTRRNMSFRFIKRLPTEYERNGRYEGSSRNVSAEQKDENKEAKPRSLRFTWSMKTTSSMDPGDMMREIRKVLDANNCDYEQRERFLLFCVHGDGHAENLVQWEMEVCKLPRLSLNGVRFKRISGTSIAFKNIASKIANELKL
T6 sequence (P51812 whole entry): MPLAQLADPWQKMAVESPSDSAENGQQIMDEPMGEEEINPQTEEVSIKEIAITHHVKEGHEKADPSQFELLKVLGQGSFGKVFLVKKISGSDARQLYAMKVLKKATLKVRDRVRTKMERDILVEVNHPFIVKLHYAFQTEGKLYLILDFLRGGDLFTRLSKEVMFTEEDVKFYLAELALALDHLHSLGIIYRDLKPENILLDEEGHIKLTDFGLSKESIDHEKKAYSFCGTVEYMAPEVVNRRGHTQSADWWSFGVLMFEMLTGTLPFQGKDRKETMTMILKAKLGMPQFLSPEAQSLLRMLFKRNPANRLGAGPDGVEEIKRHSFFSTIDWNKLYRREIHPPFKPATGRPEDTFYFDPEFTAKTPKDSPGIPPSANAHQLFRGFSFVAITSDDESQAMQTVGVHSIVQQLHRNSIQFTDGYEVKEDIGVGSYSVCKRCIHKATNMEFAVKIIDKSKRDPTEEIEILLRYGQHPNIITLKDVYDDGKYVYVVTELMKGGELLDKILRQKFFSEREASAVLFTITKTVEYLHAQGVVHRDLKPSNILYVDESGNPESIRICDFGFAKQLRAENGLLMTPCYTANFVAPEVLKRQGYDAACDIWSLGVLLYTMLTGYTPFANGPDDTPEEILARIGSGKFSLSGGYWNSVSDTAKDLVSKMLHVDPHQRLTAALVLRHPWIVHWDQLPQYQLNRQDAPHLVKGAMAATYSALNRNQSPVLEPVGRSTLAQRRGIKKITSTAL
T2 sequence (P04629 whole entry): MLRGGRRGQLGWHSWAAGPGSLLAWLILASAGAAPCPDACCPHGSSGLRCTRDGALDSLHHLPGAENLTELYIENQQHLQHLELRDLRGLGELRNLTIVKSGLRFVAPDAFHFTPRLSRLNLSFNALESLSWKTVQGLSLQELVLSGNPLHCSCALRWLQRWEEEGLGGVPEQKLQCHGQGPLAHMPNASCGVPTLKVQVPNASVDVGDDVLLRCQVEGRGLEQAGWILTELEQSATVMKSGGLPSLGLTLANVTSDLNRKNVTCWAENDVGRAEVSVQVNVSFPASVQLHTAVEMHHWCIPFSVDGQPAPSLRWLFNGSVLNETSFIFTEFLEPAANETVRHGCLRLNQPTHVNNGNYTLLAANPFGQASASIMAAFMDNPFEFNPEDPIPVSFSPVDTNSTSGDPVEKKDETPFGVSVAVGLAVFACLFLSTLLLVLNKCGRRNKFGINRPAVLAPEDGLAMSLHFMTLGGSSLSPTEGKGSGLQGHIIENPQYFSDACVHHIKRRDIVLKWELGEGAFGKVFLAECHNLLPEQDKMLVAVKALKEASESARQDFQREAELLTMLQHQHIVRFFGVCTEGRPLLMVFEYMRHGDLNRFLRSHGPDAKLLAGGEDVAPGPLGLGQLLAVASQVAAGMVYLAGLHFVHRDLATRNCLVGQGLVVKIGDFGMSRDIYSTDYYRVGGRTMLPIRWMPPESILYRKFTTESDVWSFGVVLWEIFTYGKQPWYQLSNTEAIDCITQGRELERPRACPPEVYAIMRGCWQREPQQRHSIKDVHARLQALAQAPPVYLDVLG

## C1=C(c2nc(-c3cnn(C4CCNCC4)c3)cn3cc(-c4ccccc4)nc23)CCOC1 [YL-939]
Pyk2(h)
  remaining activity at 10 µM: 108%
TrkA(h)
  remaining activity at 10 µM: 75%
Mnk2(h)
  remaining activity at 10 µM: 74%
Aurora-B(h)
  remaining activity at 10 µM: 89%
MARK3(h)
  remaining activity at 10 µM: 80%
MAP4K5(h)
  remaining activity at 10 µM: 76%
PTK5(h)
  remaining activity at 10 µM: 75%
NLK(h)
  remaining activity at 10 µM: 86%
DAPK2(h)
  remaining activity at 10 µM: 138%
STK32A(h)
  remaining activity at 10 µM: 111%
Cdc7/cyclinB1(h)
  remaining activity at 10 µM: 104%
Rsk2(h)
  remaining activity at 10 µM: 81%
ALK1(h)
  remaining activity at 10 µM: 94%
HPK1(h)
  remaining activity at 10 µM: 88%
CaMKIγ(h)
  remaining activity at 10 µM: 108%
TLK2(h)
  remaining activity at 10 µM: 88%
CK1δ(h)
  remaining activity at 10 µM: 111%
Wee1(h)
  remaining activity at 10 µM: 99%
p70S6K(h)
  remaining activity at 10 µM: 61%
FGFR1(h)
  remaining activity at 10 µM: 115%
CHK2(h)
  remaining activity at 10 µM: 100%
WNK2(h)
  remaining activity at 10 µM: 76%
CDK2/cyclinE(h)
  remaining activity at 10 µM: 85%
